From Sander's compilation of Henry's law constants (doi:10.1002/etc.5620201008)
Values joined by “and” are separate entries in the source; they are usually repeats but may differ in a detail not shown here. Equal entries are not always repeated.

Experiments:
Conditions in all cases: reference: Kochetkov et al. (2001)
[1] = Henry solubility constant Hcp at 301 K (mol/(m3 Pa))
[2] = Henry solubility constant Hcp at 299 K (mol/(m3 Pa))
[3] = Henry solubility constant Hcp at 300 K (mol/(m3 Pa))

| SMILES | Henry solubility constant Hcp at 299 K [2] | Henry solubility constant Hcp at 300 K [3] | other results |
| --- | --- | --- | --- |
| c1ccccc1 [benzene] | – | – | Henry solubility constant Hcp at 301 K [1]: 0.0021 and 0.0017 |
| C[Si]1(C)O[Si](C)(C)O[Si](C)(C)O[Si](C)(C)O[Si](C)(C)O1 [decamethylcyclopentasiloxane] | 3.4e-05 and 3.1e-05 | – | – |
| C[Si](C)(C)O[Si](C)(C)O[Si](C)(C)O[Si](C)(C)C [decamethyltetrasiloxane] | – | 5.8e-07 | – |
| C[Si]1(C)O[Si](C)(C)O[Si](C)(C)O[Si](C)(C)O[Si](C)(C)O[Si](C)(C)O1 [dodecamethylcyclohexasiloxane] | 6.8e-05 and 0.00015 | – | – |
| C[Si](C)(C)O[Si](C)(C)C [hexamethyldisiloxane] | – | 0.00017 and 0.00031 | – |
| C[Si](C)(C)O[Si](C)(C)O[Si](C)(C)C [octamethyltrisiloxane] | – | 3.3e-06 and 2.7e-06 | – |
